# Key:
# [1] = biological target: T1, hRIPK1 (aa 1-375) fusion protein (Homo sapiens, UniProt Q13546); assay: ADP-Glo kinase assay: catalytic activity of RIPK1 (autophosphorylation, conversion of ATP to ADP); type: biochemical
# T1 construct: hRIPK1 (aa 1-375) fusion protein
# T1 sequence (Q13546 1-375): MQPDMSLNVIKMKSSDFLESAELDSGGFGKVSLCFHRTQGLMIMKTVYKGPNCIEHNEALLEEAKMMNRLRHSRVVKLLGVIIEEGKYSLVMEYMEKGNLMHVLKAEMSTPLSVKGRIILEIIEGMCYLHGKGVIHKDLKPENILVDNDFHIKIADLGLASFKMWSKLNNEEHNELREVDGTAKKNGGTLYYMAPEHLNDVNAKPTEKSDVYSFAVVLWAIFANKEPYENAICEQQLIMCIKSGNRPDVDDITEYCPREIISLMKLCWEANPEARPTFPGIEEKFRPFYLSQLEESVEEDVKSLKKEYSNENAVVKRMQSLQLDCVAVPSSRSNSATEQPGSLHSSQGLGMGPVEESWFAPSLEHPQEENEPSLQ
# Protocol: The catalytic activity of RIPK1 was measured by monitoring the conversion of Adenosine triphosphate (ATP) to Adenosine diphosphate (ADP) due to autophosphorylation using an ADP-Glo kinase kit (Promega, catalog no. V9104).
# In detail, 2 μl recombinantly produced hRIPK1 (aa 1-375) fusion protein (end concentration 3.6 μg/ml) and 2 μl compound (end concentration 33300-1.69 nM; DMSO end concentration 1%) were incubated for 30 minutes at room temperature and then 2 μl ATP (ADP Glo kit, end concentration 50 μM) were added. After another 240 minutes incubation at room temperature, 5 μl Promega ADP-Glo reagent I was added to quench the reaction and deplete unconsumed ATP. After an incubation period of 30 minutes, 10 μl Promega ADP-Glo detection reagent II was added resulting in conversion of ADP to ATP, which generates a light-reaction between luciferase and luciferin. Luminescence was quantified after 30 minutes with a Pherastar FS (BMG LABTECH, Ortenberg).
# The adjustment was obtained by nonlinear regression using the Levenberg Marquardt algorithm.
# U937 cells = assay: Cellular assay in U937 cells: activity of RIPK1 inhibitors on TNFα/zVAD.fmk-induced cell death (necroptosis), CellTiter 96 AQueous (MTS) readout; type: cell-based; conditions: Homo sapiens, U-937
# Excerpt: Upon TNF-Receptor I ligation, Ser/Thr kinase RIPK1 is recruited to a transient receptor complex 1. Upon modification of RIPK1 which promotes activation of RIPK1, complex IIb can form, that involves recruitment of RIPK3 and MLKL (mixed lineage-kinase domain-like protein) which then translocates from the cytosol to the plasma membrane to execute cell death (Cai, Z. et al, Nat. Cell Biol. (2014) 16:55-65).
# Cell death was quantified in 96 well plates by determination of the amount of live cell using a CellTiter 96 AQueous reagent (Promega), a calorimetric method to measure the number of live cells by reducing tetrazolium compound [3-(4,5-dimethylthiazol-2-yl)-5-(3-carboxymethoxyphenyl)-2-(4-sulfophenyl)-2H-tetrazolium, inner salt; MTS] into formazan. Absorbance of formazan was read at 490 nm. The inhibitory activity of the test compound was quantified in a concentration response curve (CRC) experiment.
# Compounds were obtained as 10 mM stock solutions and were diluted 1 to 10 volumes with DMSO to yield a 1 mM solution. From this solution 2 μl were diluted with 998 μl growth medium. 100 μl of 2 μM compound solution was further diluted sequentially with a dilution factor of 2.5 by adding 150 μl growth medium. A total of 10 concentrations were tested ranging from 10 μM to 0.26 nM or from 1 μM to 0.07 nM.
# U937 cells were cultured in RPMI1640 Glutamax and 10% heat inactivated FBS. 50 μl cell suspension containing 1×10^6 cells/ml supplemented with 50 μM zVAD.fmk (Benzyloxycarbonyl-Val-Ala-Asp (OMe) fluoromethylketone) and 100 ng/ml recombinant human TNF[…] were dispensed in each well of a 96-well plate. 50 μl of compound dilutions (described in Cellular assay in U937 cells) were added and the cell suspension incubated overnight (18 to 24 hrs) at 37° C., 5% CO2 in a humidified atmosphere (95% rH). High (no compound) and low control (no TNF[…], zVAD.fmk) were tested with 7 replicates; all compound concentrations were tested in duplicates on each experimental plate.
# CellTiter 96 Aqueous reagent was mixed (100 μl PMS (phenazine methosulfate) solution/2 ml MTS (3-(4,5-[…])-5-(3-carboxymethoxyphenyl)-2-(4-sulfophenyl)-2H-tetrazolium, inner salt) solution) and 20 μl were added per well. After 4 hrs incubation at 37° C. (5% CO2 95% rH) optical density was measured at 490 nm on a microplate reader (Tecan Infinite M1000).
# The % inhibition is expressed as percentage of the maximal inhibition value obtained in the absence of TNFα/zVAD.fmc.
structure (smiles),measurement,setting,value
"O=C([C@H]1CC[C@H](Cn2cnc3ccccc32)CC1)N1OCC[C@H]1c1cncc(F)c1 [compound 9, trans-(4-((1H-benzo[d]imidazol-1-yl)methyl)cyclohexyl)((S)-3-(5-fluoropyridin-3-yl)isoxazolidin-2-yl)methanone]",IC50,[1],113 nM
same,IC50,U937 cells,174 nM
"N#Cc1cc2ncn(C[C@H]3CC[C@H](C(=O)N4OCC[C@H]4c4cc(F)cc(F)c4)CC3)c2cc1F [compound 10, trans-1-((4-((S)-3-(3,5-difluorophenyl)isoxazolidine-2-carbonyl)cyclohexyl)methyl)-6-fluoro-1H-benzo[d]imidazole-5-carbonitrile]",IC50,[1],43 nM
same,IC50,U937 cells,8 nM
"N#Cc1cc(F)cc([C@@H]2CCON2C(=O)[C@H]2CC[C@H](Cn3cnc4cc(C#N)c(F)cc43)CC2)c1 [compound 11, trans-1-((4-((S)-3-(3-cyano-5-fluorophenyl)isoxazolidine-2-carbonyl)cyclohexyl)methyl)-6-fluoro-1H-benzo[d]imidazole-5-carbonitrile]",IC50,[1],59 nM
same,IC50,U937 cells,38 nM
"N#Cc1cc2c(cc1F)ncn2C[C@H]1CC[C@H](C(=O)N2OCC[C@H]2c2cc(F)cc(F)c2)CC1 [compound 12, trans-1-((4-((S)-3-(3,5-difluorophenyl)isoxazolidine-2-carbonyl)cyclohexyl)methyl)-5-fluoro-1H-benzo[d]imidazole-6-carbonitrile]",IC50,[1],33 nM
same,IC50,U937 cells,3 nM
"N#Cc1cc(F)cc([C@@H]2CCON2C(=O)[C@H]2CC[C@H](Cn3cnc4cc(F)c(C#N)cc43)CC2)c1 [compound 13, trans-1-((4-((S)-3-(3-cyano-5-fluorophenyl)isoxazolidine-2-carbonyl)cyclohexyl)methyl)-5-fluoro-1H-benzo[d]imidazole-6-carbonitrile]",IC50,[1],33 nM
same,IC50,U937 cells,5 nM
"N#Cc1cc(F)cc([C@@H]2CCON2C(=O)[C@H]2CC[C@H](Cn3ccc4ncccc43)CC2)c1 [compound 14, trans-3-((S)-2-(4-((1H-pyrrolo[3,2-b]pyridin-1-yl)methyl)cyclohexane-1-carbonyl)isoxazolidin-3-yl)-5-fluorobenzonitrile]",IC50,[1],50 nM
same,IC50,U937 cells,3 nM
"N#Cc1cc(F)cc([C@@H]2CCON2C(=O)[C@H]2CC[C@H](Cn3ccc4cnccc43)CC2)c1 [compound 15, trans-3-((S)-2-(4-((1H-pyrrolo[3,2-c]pyridin-1-yl)methyl)cyclohexane-1-carbonyl)isoxazolidin-3-yl)-5-fluorobenzonitrile]",IC50,[1],46 nM
same,IC50,U937 cells,11 nM
"N#Cc1cc(F)cc([C@@H]2CCON2C(=O)[C@H]2CC[C@H](Cn3ccc4ccncc43)CC2)c1 [compound 16, trans-3-((S)-2-(4-((1H-pyrrolo[2,3-c]pyridin-1-yl)methyl)cyclohexane-1-carbonyl)isoxazolidin-3-yl)-5-fluorobenzonitrile]",IC50,[1],39 nM
same,IC50,U937 cells,6 nM
"N#Cc1cnc2ccn(C[C@H]3CC[C@H](C(=O)N4OCC[C@H]4c4cc(F)cc(F)c4)CC3)c2c1 [compound 17, trans-1-((4-((S)-3-(3,5-difluorophenyl)isoxazolidine-2-carbonyl)cyclohexyl)methyl)-1H-pyrrolo[3,2-b]pyridine-6-carbonitrile]",IC50,[1],21 nM
same,IC50,U937 cells,2 nM
"N#Cc1cc(F)cc([C@@H]2CCON2C(=O)[C@H]2CC[C@H](Cn3c(=O)oc4ccccc43)CC2)c1 [compound 18, trans-3-fluoro-5-((S)-2-(4-((2-oxobenzo[d]oxazol-3(2H)-yl)methyl)cyclohexane-1-carbonyl)isoxazolidin-3-yl)benzonitrile]",IC50,[1],19 nM
same,IC50,U937 cells,16 nM
"N#Cc1cc(F)cc([C@@H]2CCON2C(=O)[C@H]2CC[C@H](Cn3ccc4ncc(Cl)cc43)CC2)c1 [compound 19, trans-3-((S)-2-(4-((6-chloro-1H-pyrrolo[3,2-b]pyridin-1-yl)methyl)cyclohexane-1-carbonyl)isoxazolidin-3-yl)-5-fluorobenzonitrile]",IC50,[1],28 nM
same,IC50,U937 cells,5 nM
"O=c1oc2ccccc2n1C[C@H]1CC[C@H](C(=O)N2OCC[C@H]2c2cc(F)cc(F)c2)CC1 [compound 20, trans-3-((4-((S)-3-(3,5-difluorophenyl)isoxazolidine-2-carbonyl)cyclohexyl)methyl)benzo[d]oxazol-2(3H)-one]",IC50,[1],20 nM
same,IC50,U937 cells,5 nM
"O=C([C@H]1CC[C@H](Cn2ccc3ncc(Cl)cc32)CC1)N1OCC[C@H]1c1cc(F)cc(F)c1 [compound 21, trans-(4-((6-chloro-1H-pyrrolo[3,2-b]pyridin-1-yl)methyl)cyclohexyl)((S)-3-(3,5-difluorophenyl)isoxazolidin-2-yl)methanone]",IC50,[1],25 nM
same,IC50,U937 cells,5 nM
"N#Cc1cc(F)cc([C@@H]2CCON2C(=O)[C@H]2CC[C@H](Cn3ccc4cc(F)c(C#N)cc43)CC2)c1 [compound 22, trans-1-((4-((S)-3-(3-cyano-5-fluorophenyl)isoxazolidine-2-carbonyl)cyclohexyl)methyl)-5-fluoro-1H-indole-6-carbonitrile]",IC50,[1],20 nM
same,IC50,U937 cells,2 nM
"N#Cc1cc2c(ccn2C[C@H]2CC[C@H](C(=O)N3OCC[C@H]3c3cc(F)cc(F)c3)CC2)cc1F [compound 23, trans-1-((4-((S)-3-(3,5-difluorophenyl)isoxazolidine-2-carbonyl)cyclohexyl)methyl)-5-fluoro-1H-indole-6-carbonitrile]",IC50,[1],21 nM
same,IC50,U937 cells,3 nM
"N#Cc1cc(F)cc([C@@H]2CCON2C(=O)[C@H]2CC[C@H](Cn3cc4ncc(C#N)cc4n3)CC2)c1 [compound 24, trans-2-((4-((S)-3-(3-cyano-5-fluorophenyl)isoxazolidine-2-carbonyl)cyclohexyl)methyl)-2H-pyrazolo[4,3-b]pyridine-6-carbonitrile]",IC50,[1],109 nM
same,IC50,U937 cells,471 nM
"N#Cc1cnc2cn(C[C@H]3CC[C@H](C(=O)N4OCC[C@H]4c4cc(F)cc(F)c4)CC3)nc2c1 [compound 25, trans-2-((4-((S)-3-(3,5-difluorophenyl)isoxazolidine-2-carbonyl)cyclohexyl)methyl)-2H-pyrazolo[4,3-b]pyridine-6-carbonitrile]",IC50,[1],68 nM
same,IC50,U937 cells,154 nM
"N#Cc1cnc2cnn(C[C@H]3CC[C@H](C(=O)N4OCC[C@H]4c4cc(F)cc(F)c4)CC3)c2c1 [compound 26, trans-1-((4-((S)-3-(3,5-difluorophenyl)isoxazolidine-2-carbonyl)cyclohexyl)methyl)-1H-pyrazolo[4,3-b]pyridine-6-carbonitrile]",IC50,[1],20 nM
same,IC50,U937 cells,2 nM
"N#Cc1cc(F)cc([C@@H]2CCON2C(=O)[C@H]2CC[C@H](Cn3ncc4ncc(C#N)cc43)CC2)c1 [compound 27, trans-1-((4-((S)-3-(3-cyano-5-fluorophenyl)isoxazolidine-2-carbonyl)cyclohexyl)methyl)-1H-pyrazolo[4,3-b]pyridine-6-carbonitrile]",IC50,[1],6 nM
same,IC50,U937 cells,2 nM
